According to patent US20160193240A1, “Ulmoside-A: Useful For Prevention Or Cure Of Metabolic Diseases” (COUNCIL OF SCIENTIFIC & INDUSTRIAL RESEARCH, priority 2013, published 2016):

Legend:
GAL-PPARα = assay: PPARα activation assay (GAL-PPARα / GAL4-Luc reporter) in HEK293 cells expressing endogenous AdipoR1; format: cell-based, human; conditions: 100 pM GW-7647 alone, 6 hours, HEK293
Description: A. ULMA enhances PPARα ligand activity; HEK293 cells were seeded on to 24 well plates and after 24 h, transfected with 100 ng of GAL-PPARα and 100 ng GAL4-Luc along with 100 ng eGFPC1 (Clontech) plasmids using lipofectamine LTX (Invitrogen) according to manufacturer's instructions. 24 h after transfection, cells were treated with or without 100 pM GW-7647 alone or in combination with 100 nM ULMA or 1 μg/ml globular adiponectin (gAd) for 6 h. Following which, the cells were lysed and GFP fluorescence and firefly luciferase activities were measured. Luciferase activity was normalized with GFP fluorescence and plotted as fold activity over vehicle (0.1% DMSO) treated control. Data shown in mean±SEM of three independent experiments performed in duplicates. *p<0.05 as determined by two tailed unpaired student's t-test.
The potential of ULMA to activate adiponectin receptor signaling was evaluated using a PPARα activation assay. […] 24 hours following plating, these cells were transfected with 100 ng of GAL-PPARα (PPARα cDNA fused with GAL4 DNA binding domain) and 100 ng GAL4 upstream activation sequence driven luciferase (GAL4-Luc) reporter gene that is capable of binding to any protein fused to GAL4-DNA binding domain (in this case GAL-PPARα) and 100 ng Green fluorescence expressing plasmid (GFP) that was used as an internal control, using lipofectamine LTX transfection reagent (Invitrogen) according to manufacturers' instructions. […] The cells were then lysed and luciferase activity was measured in a Promega GloMax luminometer using steady Glo luciferase assay kit (Promega) according to manufacturers' instructions; and GFP fluorescence was measured in a fluorimeter (Polarstar Galaxy, BMG Labtech). […]

wistar rats [1] = assay: Dexamethasone-mediated reduction of food intake in rats; format: in vivo, rat; conditions: Dex alone 200 μg/kg IP
Description: Six to eight week old wistar rats (n=6 per group) were housed separately and treated as indicated in the example. Daily food intake was measured and plotted. […] Data represents mean+/−SEM.
(§1) Blood was collected from cardiac punctures.
Food intake was measured every alternate day by giving measured food to each cage in evening (5.00 PM) and collection of residual food in next morning (9.00 AM) and measuring it. The residual food was subtracted from the food given and plotted.

wistar rats [2] = assay: Dexamethasone-mediated imbalance in serum Na, K level in rats; format: in vivo, rat; conditions: Dex + Vehicle, 14 days
Description: Food intake was measured daily and the rats were weighed each week. The rats were fasted overnight (O/N) on day 14th and on day 15th oral glucose tolerance test was performed. Following oral glucose tolerance test (OGTT), rats were kept with food and water ad libitum for one day. On day 16th, rats were fasted again O/N and then euthanized. At autopsy, from 5 animals/group, tissues were collected and snap frozen in liquid nitrogen. Blood was collected from cardiac punctures. Plasma was separated from whole blood by centrifugation at 3000 rpm for 20 min immediately after collection of blood and stored at −80° C. until further analysis. Forelimb (quadriceps) skeletal muscles were processed for RNA and protein extraction, followed by quantitative real-time PCR (QRT-PCR) analysis. Two animals from each group were used for photography post autopsy.

wistar rats [3] = assay: Dexamethasone-induced skeletal muscle atrophy in rats (limb appearance, QRT-PCR of PGC-1α and atrogenes); format: in vivo, rat; conditions: Dex alone
Description: Following 15 d indicated treatment of rats, the skeletal muscle (pulled hind limb) were collected and RNA was extracted from them and QRT-PCR was performed in a Roche lightcycler 480 machine. Data represents mean+/−SEM from six animals done in triplicates. “a” statistical analysis between Vehicle and Dexamethasone-treated groups, “b”, statistical analysis between dex-treated and dex+ ULMA groups. P<0.05, as determined by student's t-test, n=6.
as §1
RNA was isolated from skeletal muscles using Trizol (according to manufacturers' protocol) and reverse transcribed as described above and either PGC-1α expression or muscle atrophy related genes (atrogenes) expression were examined.

wistar rats [4] = assay: Dexamethasone-mediated reduction in serum osteocalcin in rats (ELISA); format: in vivo, rat; conditions: Dex alone, 14 days
Description: (§2) Food intake was measured daily and the rats were weighed each week. The rats were fasted overnight (O/N) on day 14th and on day 15th oral glucose tolerance test was performed. Following oral glucose tolerance test (OGTT), rats were kept with food and water ad libitum for one day. On day 16th, rats were fasted again O/N and then euthanized. At autopsy, from 5 animals/group, tissues were collected and snap frozen in liquid nitrogen. Blood was collected from cardiac punctures. Plasma was separated from whole blood by centrifugation at 3000 rpm for 20 min immediately after collection of blood and stored at −80° C. until further analysis. […] (quadriceps) skeletal muscles were processed for RNA and protein extraction, followed by quantitative real-time PCR (QRT-PCR) analysis. Two animals from each group were used for photography post autopsy.

wistar rats [5] = assay: Dexamethasone induced loss of body weight and death in rats; conditions: Dex alone (200 μg/kg IP), 2 weeks
Description: All animal experiments were conducted in accordance with current legislation on animal experiments [Institutional Animal Ethical Committee (IAEC)] at C.D.R.I. In all animal experiments, rats were individually housed at 21° C., in 12-h light:12-h dark cycles. All animals had access to normal chow diet and water ad libitum.
as §2

Structure (SMILES)	increase of luciferase activity over vehicle-treated controls (GAL-PPARα) [folds]	food intake (wistar rats [1])	K (wistar rats [2]) [mM]	appearance of denuded forelimb and hindlimb (wistar rats [3])	mRNA levels of atrogenes (Atrogin-1/MAFbx, MuRF1, Cathepsin L, Glul) in skeletal muscle (wistar rats [3])	Osteocalcin (wistar rats [4]) [ng/mL]	Survival/group (%) (wistar rats [5])
CC(C)(Sc1ccc(CCN(CCCCC2CCCCC2)C(=O)NC2CCCCC2)cc1)C(=O)O [GW-7647, reference compound]	2						
C[C@@H]1C[C@H]2[C@@H]3CCC4=CC(=O)C=C[C@]4(C)[C@@]3(F)[C@@H](O)C[C@]2(C)[C@@]1(O)C(=O)CO [Dex, Dexamethasone, reference compound]		robust loss in food-intake	3.47 ± 0.13	severe abnormality in the limbs	robustly induced	263.5 ± 6.4	46.7
